Assay results from PubChem BioAssay AID2060614 (Molecular Pharmacology Branch, DTP, NCI, 2025).
Where “and” joins values, the source holds several entries; their conditions need not be identical. Identical values can stand only once.

Test system: 598228-144-R-J1-PDC complex spheroids, viability
Assay: Anticancer human tumor 598228-144-R-J1-PDC patient-derived serous endometrial adenocarcinoma cell line growth inhibition [CLK]
Details: for viability, T/C: stronger effect = lower value
Summary of the method: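 Patient-derived tumor cells grown as complex spheroids with HUVEC endothelial cells and mesenchymal stem cells, treated with drug combinations. Concentrations descend in half-log steps from near clinical Cmax, or from 10 microM if Cmax unknown.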

[1] = curve of first compound, second compound 0.0316 µM
[2] = curve of first compound, second compound 0.1 µM
[3] = curve of first compound, second compound 0.316 µM
[4] = curve of first compound, second compound 1 µM
[5] = curve of first compound, second compound 3.16 µM
[6] = curve of first compound, second compound 10 µM
[7] = second compound 0.0316 µM, first compound 0.0316 µM
[8] = second compound 0.0316 µM, first compound 0.1 µM
[9] = second compound 0.0316 µM, first compound 0.316 µM
[10] = second compound 0.0316 µM, first compound 1 µM
[11] = second compound 0.0316 µM, first compound 3.16 µM
[12] = second compound 0.0316 µM, first compound 10 µM
[13] = second compound 0.1 µM, first compound 0.0316 µM
[14] = second compound 0.1 µM, first compound 0.1 µM
[15] = second compound 0.1 µM, first compound 0.316 µM
[16] = second compound 0.1 µM, first compound 1 µM
[17] = second compound 0.1 µM, first compound 3.16 µM
[18] = second compound 0.1 µM, first compound 10 µM
[19] = second compound 0.316 µM, first compound 0.0316 µM
[20] = second compound 0.316 µM, first compound 0.1 µM
[21] = second compound 0.316 µM, first compound 0.316 µM
[22] = second compound 0.316 µM, first compound 1 µM
[23] = second compound 0.316 µM, first compound 3.16 µM
[24] = second compound 0.316 µM, first compound 10 µM
[25] = second compound 1 µM, first compound 0.0316 µM
[26] = second compound 1 µM, first compound 0.1 µM
[27] = second compound 1 µM, first compound 0.316 µM
[28] = second compound 1 µM, first compound 1 µM
[29] = second compound 1 µM, first compound 3.16 µM
[30] = second compound 1 µM, first compound 10 µM
[31] = second compound 3.16 µM, first compound 0.0316 µM
[32] = second compound 3.16 µM, first compound 0.1 µM
[33] = second compound 3.16 µM, first compound 0.316 µM
[34] = second compound 3.16 µM, first compound 1 µM
[35] = second compound 3.16 µM, first compound 3.16 µM
[36] = second compound 3.16 µM, first compound 10 µM
[37] = second compound 10 µM, first compound 0.0316 µM
[38] = second compound 10 µM, first compound 0.1 µM
[39] = second compound 10 µM, first compound 0.316 µM
[40] = second compound 10 µM, first compound 1 µM
[41] = second compound 10 µM, first compound 3.16 µM
[42] = second compound 10 µM, first compound 10 µM
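Also: spheroids exposed to compounds for seven days before readout.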
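For viability, T/C in this document: 100% = DMSO vehicle control wells.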

SMILES: Nc1ccn(C2OC(CO)C(O)C2(F)F)c(=O)n1 (stereo not given)
- viability, T/C (compound 0.0316 µM): 32.7% and 37.1%
- viability, T/C (compound 0.1 µM): 24.5% and 31.8%
- viability, T/C (compound 0.316 µM): 20.6% and 26.5%
- viability, T/C (compound 1 µM): 24.4% and 28%
- viability, T/C (compound 3.16 µM): 21.4% and 36.8%
- viability, T/C (compound 10 µM): 22% and 27.7%
- IC50 (curve of compound): < 31.6 nM

SMILES: C#Cc1c(F)ccc2cc(O)cc(-c3ncc4c(N5CC6CCC(C5)N6)nc(OCC56CCCN5CC(F)C6)nc4c3F)c12 (stereo not given) + CN1CCN(c2cc(C(=O)Nc3cc4cc(-c5cnn(C)c5)ccc4cn3)ccn2)CC1
- IC50 [1]: > 10000 nM
- IC50 [2]: > 10000 nM
- IC50 [3]: < 31.6 nM
- IC50 [4]: < 31.6 nM
- IC50 [5]: < 31.6 nM
- IC50 [6]: < 31.6 nM
- viability, T/C [7]: 132%
- viability, T/C [8]: 124%
- viability, T/C [9]: 125%
- viability, T/C [10]: 135%
- viability, T/C [11]: 117%
- viability, T/C [12]: 124%
- viability, T/C [13]: 133%
- viability, T/C [14]: 157%
- viability, T/C [15]: 136%
- viability, T/C [16]: 124%
- viability, T/C [17]: 125%
- viability, T/C [18]: 121%
- viability, T/C [19]: 17.1%
- viability, T/C [20]: 13.9%
- viability, T/C [21]: 16%
- viability, T/C [22]: 19.5%
- viability, T/C [23]: 17.8%
- viability, T/C [24]: 16.2%
- viability, T/C [25]: 1.68%
- viability, T/C [26]: 1.68%
- viability, T/C [27]: 2.02%
- viability, T/C [28]: 1.73%
- viability, T/C [29]: 1.51%
- viability, T/C [30]: 1.49%
- viability, T/C [31]: 1.98%
- viability, T/C [32]: 5.99%
- viability, T/C [33]: 2.15%
- viability, T/C [34]: 1.76%
- viability, T/C [35]: 1.24%
- viability, T/C [36]: 3.29%
- viability, T/C [37]: 1.05%
- viability, T/C [38]: 2.3%
- viability, T/C [39]: 0.88%
- viability, T/C [40]: 0.94%
- viability, T/C [41]: 1%
- viability, T/C [42]: 0.39%

SMILES: Nc1ccn(C2OC(CO)C(O)C2(F)F)c(=O)n1 (stereo not given) + CN1CCN(c2cc(C(=O)Nc3cc4cc(-c5cnn(C)c5)ccc4cn3)ccn2)CC1
- IC50 [1]: < 31.6 nM
- IC50 [2]: < 31.6 nM
- IC50 [3]: < 31.6 nM
- IC50 [4]: < 31.6 nM
- IC50 [5]: < 31.6 nM
- IC50 [6]: < 31.6 nM
- viability, T/C [7]: 42.6%
- viability, T/C [8]: 23.5%
- viability, T/C [9]: 24.3%
- viability, T/C [10]: 21.2%
- viability, T/C [11]: 23.4%
- viability, T/C [12]: 28.3%
- viability, T/C [13]: 46.5%
- viability, T/C [14]: 26.8%
- viability, T/C [15]: 25.4%
- viability, T/C [16]: 28.5%
- viability, T/C [17]: 28.5%
- viability, T/C [18]: 29.5%
- viability, T/C [19]: 18%
- viability, T/C [20]: 16.9%
- viability, T/C [21]: 14%
- viability, T/C [22]: 15.4%
- viability, T/C [23]: 17%
- viability, T/C [24]: 16.9%
- viability, T/C [25]: 3.9%
- viability, T/C [26]: 1.1%
- viability, T/C [27]: 2.41%
- viability, T/C [28]: 1.35%
- viability, T/C [29]: 2.84%
- viability, T/C [30]: 4.14%
- viability, T/C [31]: 1.84%
- viability, T/C [32]: 4.4%
- viability, T/C [33]: 1.37%
- viability, T/C [34]: 1.5%
- viability, T/C [35]: 5.71%
- viability, T/C [36]: 5.03%
- viability, T/C [37]: 0.74%
- viability, T/C [38]: 0.77%
- viability, T/C [39]: 2.69%
- viability, T/C [40]: 0.88%
- viability, T/C [41]: 5.39%
- viability, T/C [42]: 1.96%

SMILES: CC(CO)NC(=O)c1cc(-c2ccc(Cl)cc2)nn(-c2cnn(C)c2)c1=O (stereo not given)
- viability, T/C (compound 0.0316 µM): 92.9% and 110%
- viability, T/C (compound 0.1 µM): 89.4% and 109%
- viability, T/C (compound 0.316 µM): 98.2% and 116%
- viability, T/C (compound 1 µM): 98.4% and 106%
- viability, T/C (compound 3.16 µM): 76.6% and 111%
- viability, T/C (compound 10 µM): 89.9% and 73.9%
- IC50 (curve of compound): > 10000 nM

SMILES: CCc1c2c(nc3ccc(O)cc13)-c1cc3c(c(=O)n1C2)COC(=O)[C@]3(O)CC + CN1CCN(c2cc(C(=O)Nc3cc4cc(-c5cnn(C)c5)ccc4cn3)ccn2)CC1
- IC50 [1]: 68.3 nM
- IC50 [2]: 96 nM
- IC50 [3]: < 3.16 nM
- IC50 [4]: < 3.16 nM
- IC50 [5]: < 3.16 nM
- IC50 [6]: < 3.16 nM
- viability, T/C (second compound 0.0316 µM, first compound 0.00316 µM): 104%
- viability, T/C (second compound 0.0316 µM, first compound 0.01 µM): 91.3%
- viability, T/C [7]: 73.8%
- viability, T/C [8]: 39.2%
- viability, T/C [9]: 16.6%
- viability, T/C [10]: 13.1%
- viability, T/C (second compound 0.1 µM, first compound 0.00316 µM): 152%
- viability, T/C (second compound 0.1 µM, first compound 0.01 µM): 121%
- viability, T/C [13]: 84%
- viability, T/C [14]: 47.4%
- viability, T/C [15]: 23.3%
- viability, T/C [16]: 9.49%
- viability, T/C (second compound 0.316 µM, first compound 0.00316 µM): 17.4%
- viability, T/C (second compound 0.316 µM, first compound 0.01 µM): 17.4%
- viability, T/C [19]: 18.3%
- viability, T/C [20]: 13.1%
- viability, T/C [21]: 5.94%
- viability, T/C [22]: 5.35%
- viability, T/C (second compound 1 µM, first compound 0.00316 µM): 1.34%
- viability, T/C (second compound 1 µM, first compound 0.01 µM): 0.98%
- viability, T/C [25]: 2.66%
- viability, T/C [26]: 0.5%
- viability, T/C [27]: 2.92%
- viability, T/C [28]: 4.75%
- viability, T/C (second compound 3.16 µM, first compound 0.00316 µM): 1.44%
- viability, T/C (second compound 3.16 µM, first compound 0.01 µM): 1.88%
- viability, T/C [31]: 0.95%
- viability, T/C [32]: 1.2%
- viability, T/C [33]: 2.83%
- viability, T/C [34]: 4.75%
- viability, T/C (second compound 10 µM, first compound 0.00316 µM): 0.83%
- viability, T/C (second compound 10 µM, first compound 0.01 µM): 0.62%
- viability, T/C [37]: 2.12%
- viability, T/C [38]: 0.62%
- viability, T/C [39]: 6.02%
- viability, T/C [40]: 4.41%
